# Results as given in patent US11306063B2, “Heterocyclic naphthoquinones derivatives for use in the treatment of cancers including Cushing disease” (Commissariat a l'Energie Atomique et aux Energies …, priority 2016, dated 2022).
# Experiments:
# [1] = biological target: T1, USP2 full length (USP2^FL) (Homo sapiens, UniProt O75604); assay: Inhibition of Ub-AMC hydrolysis by USP2 full length; type: biochemical; conditions: Ub-AMC at 1 μM, Table 1a; for inhibition at 1 µM: 1 μM compound; for inhibition at 5 µM: 5 μM compound; for inhibition at 25 µM: 25 μM compound; for inhibition at 50 µM: 50 μM compound
# T1 construct: purchased BioSciences 80352
# T1 sequence (O75604 1-605): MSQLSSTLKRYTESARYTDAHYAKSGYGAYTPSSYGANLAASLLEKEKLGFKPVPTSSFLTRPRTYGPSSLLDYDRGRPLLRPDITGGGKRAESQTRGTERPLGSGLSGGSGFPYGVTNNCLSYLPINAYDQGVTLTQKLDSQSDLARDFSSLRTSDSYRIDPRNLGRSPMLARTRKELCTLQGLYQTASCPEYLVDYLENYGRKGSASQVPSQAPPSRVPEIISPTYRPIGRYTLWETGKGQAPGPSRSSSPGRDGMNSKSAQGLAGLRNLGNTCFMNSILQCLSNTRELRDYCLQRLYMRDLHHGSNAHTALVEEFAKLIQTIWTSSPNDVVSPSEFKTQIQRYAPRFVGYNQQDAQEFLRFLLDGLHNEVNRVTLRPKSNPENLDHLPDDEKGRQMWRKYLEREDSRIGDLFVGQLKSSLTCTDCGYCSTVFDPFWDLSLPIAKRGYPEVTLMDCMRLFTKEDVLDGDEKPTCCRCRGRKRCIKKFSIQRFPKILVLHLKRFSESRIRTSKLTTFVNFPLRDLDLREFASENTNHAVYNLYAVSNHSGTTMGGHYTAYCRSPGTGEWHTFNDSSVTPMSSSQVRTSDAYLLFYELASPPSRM
# Protocol: (§1) Enzymatic assay was performed in a HEPES buffer (50 mM pH7.6 1 mM DTT, 2% glycerol, 0.5 mM EDTA) or in a Tris buffer (40 mM pH7.4 1 mM DTT, 5% glycerol, 0.05 mg/ml BSA) respectively, following manufacturer's instructions. Compounds were added to the reaction mixture just prior to the substrate. The enzymatic reaction kinetics was monitored through the apparition of fluorescence due to the hydrolysis of the peptidyl Ub-AMC or Ub-Rho bound over 20 or 30 minutes.
# [2] = biological target: T2, USP8^CD (purified catalytic domain of USP8) (Homo sapiens, UniProt P40818); assay: Inhibition of purified USP8^CD enzymatic activity (Ub-AMC or Ub-Rho substrate); type: biochemical; conditions: Ub-AMC at 1 μM, Table 1a; for inhibition at 1 µM: 1 μM compound
# T2 construct: the purified catalytic domain of USP8 (USP8^CD, in-house purified); made in house; host or cells: E. coli BL21 Gold
# T2 sequence (P40818 777-1109 limits assumed): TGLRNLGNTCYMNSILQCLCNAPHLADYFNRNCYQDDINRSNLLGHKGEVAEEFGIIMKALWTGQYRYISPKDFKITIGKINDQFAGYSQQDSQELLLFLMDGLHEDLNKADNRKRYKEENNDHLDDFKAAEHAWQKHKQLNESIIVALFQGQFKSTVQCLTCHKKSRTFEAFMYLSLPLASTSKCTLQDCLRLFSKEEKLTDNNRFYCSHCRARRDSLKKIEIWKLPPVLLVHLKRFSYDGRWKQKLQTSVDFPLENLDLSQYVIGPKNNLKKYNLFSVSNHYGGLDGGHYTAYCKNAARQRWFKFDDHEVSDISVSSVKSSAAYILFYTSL
# Protocol: USP2CD or USP8CD were expressed in E. coli BL21 Gold. Cells were grown in LB Miller to mid-log phase and induced by addition of 0.5 mM IPTG for USP2CD for 5 h at 20° C., while 1 mM IPTG was added for USP8CD for 3 h at 37° C. Then, cells were harvested and frozen at −80° C.
# For His-tagged USP8CD, cells were resuspended in buffer A (50 mM TRIS pH 8.0, 500 mM NaCl, 2 mM Imidazole) and lysed using a sonicator. The lysate was clarified by centrifugation and applied to Ni Sepharose6 Fast Flow resin (GE Healthcare). The resin was sequentially washed first with buffer A containing 10 mM Imidazole then with buffer A containing 20 mM Imidazole, and finally with buffer A containing 50 mM Imidazole. Protein sample was eluted from the resin using buffer A containing 300 mM Imidazole. The eluted protein was buffer exchanged by gel-filtration on a Superdex 200 10/300 GL column (GE Healthcare) equilibrated in Buffer B (20 mM HEPES pH 7.5, 300 mM NaCl, 2 mM dithiothreitol (DTT)).
# as §1
# Medium value out of duplicates is reported.
Structure (SMILES),inhibition at 1 µM [1] [%],inhibition at 5 µM [1] [%],inhibition at 25 µM [1] [%],inhibition at 50 µM [1] [%],USP8^CD % inhibition ([2]; 0.1 μM compound) [%],USP8^CD % inhibition ([2]; 0.5 μM compound) [%],inhibition at 1 µM [2] [%],USP8^CD % inhibition ([2]; 5 μM compound) [%],USP8^CD % inhibition ([2]; 25 μM compound) [%],USP8^CD % inhibition ([2]; 50 μM compound) [%]
O=C1c2ccccc2C(=O)c2nc(CS(=O)(=O)c3ccc(F)cc3)c(CS(=O)(=O)c3ccc(F)cc3)nc21 [PCR7993],29,59,58,98,0,16,34,22,101,102
O=C1c2ccccc2C(=O)c2nc(CS(=O)(=O)c3ccccc3)c(CS(=O)(=O)c3ccccc3)nc21 [PCR7986],46,74,78,92,1,13,,,,36
O=C1c2ccccc2C(=O)c2nc(C=C3CCCC3)c(C=C3CCCC3)nc21 [PCR8153],8,54,98,98,,,0,22,100,100
O=C1c2ccccc2C(=O)c2nc(CS(=O)(=O)c3cccs3)c(CS(=O)(=O)c3cccs3)nc21 [PCR7997],0,22,70,99,17,3,13,61,97,100
Cc1ccc(S(=O)(=O)Cc2nc3c(nc2CS(=O)(=O)c2ccc(C)cc2)C(=O)c2ccccc2C3=O)cc1 [PCR7985],33,49,59,95,1,20,55,23,61,98
